Experimental data: paper PMC11167047 (Cell Death Discovery, 2024)

Tests used:
Experiment in all cases: kinome screen (33PanQinase)
Assay type in all cases: biochemical
MKK7 = target: T1, MKK7 (Homo sapiens, UniProt O14733)
T1 construct: purchased Reaction Biology Europe GmbH (formerly ProQinase)
T1 sequence (O14733 1-419): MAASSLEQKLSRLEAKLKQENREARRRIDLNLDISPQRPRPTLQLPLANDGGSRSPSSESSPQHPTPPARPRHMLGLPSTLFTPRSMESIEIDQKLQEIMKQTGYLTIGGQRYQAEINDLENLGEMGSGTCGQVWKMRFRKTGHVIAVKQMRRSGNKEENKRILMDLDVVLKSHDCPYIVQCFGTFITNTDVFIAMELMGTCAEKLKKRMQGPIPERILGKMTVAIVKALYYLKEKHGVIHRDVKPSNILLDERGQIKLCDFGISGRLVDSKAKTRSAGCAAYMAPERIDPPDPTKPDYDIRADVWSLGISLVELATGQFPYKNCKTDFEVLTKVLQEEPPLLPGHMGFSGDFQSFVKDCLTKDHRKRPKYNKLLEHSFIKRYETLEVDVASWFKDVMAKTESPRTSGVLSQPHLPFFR
Description: (§1) The Kinome Screening was performed by Reaction Biology Europe GmbH (http://reactionbiology.com; Freiburg i. Br., Germany).

AKT1 = target: T2, AKT1 (Homo sapiens, UniProt P31749)
T2 construct: purchased Reaction Biology Europe GmbH (formerly ProQinase)
Description: as §1

JAK3 = target: T3, JAK3 (Homo sapiens, UniProt P52333)
T3 construct: purchased Reaction Biology Europe GmbH (formerly ProQinase)
T3 sequence (P52333 1-1124): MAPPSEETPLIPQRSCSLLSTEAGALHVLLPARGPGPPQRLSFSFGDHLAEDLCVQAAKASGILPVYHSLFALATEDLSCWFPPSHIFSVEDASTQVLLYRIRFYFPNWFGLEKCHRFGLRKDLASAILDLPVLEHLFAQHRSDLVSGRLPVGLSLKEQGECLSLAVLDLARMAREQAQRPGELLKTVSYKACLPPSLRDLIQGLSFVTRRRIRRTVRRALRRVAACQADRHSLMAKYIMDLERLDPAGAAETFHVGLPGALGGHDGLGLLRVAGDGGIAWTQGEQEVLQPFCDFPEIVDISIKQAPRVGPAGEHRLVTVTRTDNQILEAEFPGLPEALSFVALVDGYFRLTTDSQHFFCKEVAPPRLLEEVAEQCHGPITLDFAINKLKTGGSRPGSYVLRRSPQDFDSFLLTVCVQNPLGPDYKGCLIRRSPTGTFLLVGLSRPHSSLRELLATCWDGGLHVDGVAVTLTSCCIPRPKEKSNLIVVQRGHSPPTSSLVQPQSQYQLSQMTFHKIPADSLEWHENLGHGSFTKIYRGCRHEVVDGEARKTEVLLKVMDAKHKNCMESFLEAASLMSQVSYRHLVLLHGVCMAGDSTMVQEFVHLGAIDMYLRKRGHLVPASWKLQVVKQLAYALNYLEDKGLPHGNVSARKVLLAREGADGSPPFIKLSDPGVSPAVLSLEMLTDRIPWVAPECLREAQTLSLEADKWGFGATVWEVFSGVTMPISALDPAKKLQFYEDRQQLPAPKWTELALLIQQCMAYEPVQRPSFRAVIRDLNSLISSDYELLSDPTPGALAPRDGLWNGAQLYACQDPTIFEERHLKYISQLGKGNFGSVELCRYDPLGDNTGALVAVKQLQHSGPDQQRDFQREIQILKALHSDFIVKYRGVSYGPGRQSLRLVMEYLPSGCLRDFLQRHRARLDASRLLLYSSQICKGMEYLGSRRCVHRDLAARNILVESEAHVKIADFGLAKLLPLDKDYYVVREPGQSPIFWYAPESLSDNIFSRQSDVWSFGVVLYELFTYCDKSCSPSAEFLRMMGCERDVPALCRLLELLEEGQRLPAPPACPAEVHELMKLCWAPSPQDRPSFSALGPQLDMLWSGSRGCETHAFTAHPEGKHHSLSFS
Description: as §1

TYRO3 = target: T4, TYRO3 (Homo sapiens, UniProt Q06418)
T4 construct: purchased Reaction Biology Europe GmbH (formerly ProQinase)
T4 sequence (Q06418 41-890): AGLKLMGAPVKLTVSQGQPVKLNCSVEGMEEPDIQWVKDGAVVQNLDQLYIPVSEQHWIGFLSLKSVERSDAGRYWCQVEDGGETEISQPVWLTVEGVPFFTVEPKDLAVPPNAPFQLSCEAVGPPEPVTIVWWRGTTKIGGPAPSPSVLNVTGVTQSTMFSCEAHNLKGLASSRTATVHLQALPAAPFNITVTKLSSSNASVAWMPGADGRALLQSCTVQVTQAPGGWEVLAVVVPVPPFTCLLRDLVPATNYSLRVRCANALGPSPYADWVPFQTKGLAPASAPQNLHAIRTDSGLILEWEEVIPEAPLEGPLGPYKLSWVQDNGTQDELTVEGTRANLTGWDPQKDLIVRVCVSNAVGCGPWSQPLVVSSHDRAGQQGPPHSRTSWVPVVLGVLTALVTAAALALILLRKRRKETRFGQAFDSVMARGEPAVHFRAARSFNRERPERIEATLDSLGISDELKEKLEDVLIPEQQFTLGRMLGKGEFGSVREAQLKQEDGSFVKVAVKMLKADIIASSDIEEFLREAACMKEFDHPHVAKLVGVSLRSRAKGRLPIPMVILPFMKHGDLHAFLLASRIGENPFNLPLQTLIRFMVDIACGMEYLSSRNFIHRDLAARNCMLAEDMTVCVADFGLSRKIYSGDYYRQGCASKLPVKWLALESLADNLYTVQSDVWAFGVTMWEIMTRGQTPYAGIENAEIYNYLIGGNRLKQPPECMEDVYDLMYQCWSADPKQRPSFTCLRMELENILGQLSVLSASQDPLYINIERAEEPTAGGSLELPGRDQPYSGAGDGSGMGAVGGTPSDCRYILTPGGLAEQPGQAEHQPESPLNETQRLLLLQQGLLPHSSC
Description: as §1

PKN3 = target: T5, PKN3 (Homo sapiens, UniProt Q6P5Z2)
T5 construct: purchased Reaction Biology Europe GmbH (formerly ProQinase)
Description: as §1

PAK7 = target: T6, PAK7 (Homo sapiens, UniProt Q9P286)
T6 construct: purchased Reaction Biology Europe GmbH (formerly ProQinase)
Description: as §1

T5 sequence (Q6P5Z2 whole entry): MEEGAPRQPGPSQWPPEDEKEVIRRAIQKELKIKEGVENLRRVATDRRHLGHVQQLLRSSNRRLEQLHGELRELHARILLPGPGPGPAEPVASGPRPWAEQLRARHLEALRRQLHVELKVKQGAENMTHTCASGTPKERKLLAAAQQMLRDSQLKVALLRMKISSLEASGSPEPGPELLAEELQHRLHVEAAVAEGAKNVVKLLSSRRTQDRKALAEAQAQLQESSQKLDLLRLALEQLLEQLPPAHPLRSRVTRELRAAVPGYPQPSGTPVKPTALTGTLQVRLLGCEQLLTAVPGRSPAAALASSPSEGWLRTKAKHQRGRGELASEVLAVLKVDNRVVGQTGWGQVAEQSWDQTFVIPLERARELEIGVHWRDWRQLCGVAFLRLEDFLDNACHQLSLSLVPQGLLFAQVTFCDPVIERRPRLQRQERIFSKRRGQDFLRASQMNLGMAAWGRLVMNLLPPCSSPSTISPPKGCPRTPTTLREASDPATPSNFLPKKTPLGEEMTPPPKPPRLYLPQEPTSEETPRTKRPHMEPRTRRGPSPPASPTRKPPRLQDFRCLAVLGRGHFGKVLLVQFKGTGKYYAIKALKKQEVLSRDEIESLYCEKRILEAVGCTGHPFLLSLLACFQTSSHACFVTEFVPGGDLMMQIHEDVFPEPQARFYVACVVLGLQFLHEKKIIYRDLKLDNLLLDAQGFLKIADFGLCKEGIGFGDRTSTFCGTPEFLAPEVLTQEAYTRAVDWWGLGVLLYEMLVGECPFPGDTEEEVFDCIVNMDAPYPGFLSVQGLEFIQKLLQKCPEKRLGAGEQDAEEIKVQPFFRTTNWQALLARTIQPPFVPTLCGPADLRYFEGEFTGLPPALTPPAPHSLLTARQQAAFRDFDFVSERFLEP
T6 sequence (Q9P286 whole entry): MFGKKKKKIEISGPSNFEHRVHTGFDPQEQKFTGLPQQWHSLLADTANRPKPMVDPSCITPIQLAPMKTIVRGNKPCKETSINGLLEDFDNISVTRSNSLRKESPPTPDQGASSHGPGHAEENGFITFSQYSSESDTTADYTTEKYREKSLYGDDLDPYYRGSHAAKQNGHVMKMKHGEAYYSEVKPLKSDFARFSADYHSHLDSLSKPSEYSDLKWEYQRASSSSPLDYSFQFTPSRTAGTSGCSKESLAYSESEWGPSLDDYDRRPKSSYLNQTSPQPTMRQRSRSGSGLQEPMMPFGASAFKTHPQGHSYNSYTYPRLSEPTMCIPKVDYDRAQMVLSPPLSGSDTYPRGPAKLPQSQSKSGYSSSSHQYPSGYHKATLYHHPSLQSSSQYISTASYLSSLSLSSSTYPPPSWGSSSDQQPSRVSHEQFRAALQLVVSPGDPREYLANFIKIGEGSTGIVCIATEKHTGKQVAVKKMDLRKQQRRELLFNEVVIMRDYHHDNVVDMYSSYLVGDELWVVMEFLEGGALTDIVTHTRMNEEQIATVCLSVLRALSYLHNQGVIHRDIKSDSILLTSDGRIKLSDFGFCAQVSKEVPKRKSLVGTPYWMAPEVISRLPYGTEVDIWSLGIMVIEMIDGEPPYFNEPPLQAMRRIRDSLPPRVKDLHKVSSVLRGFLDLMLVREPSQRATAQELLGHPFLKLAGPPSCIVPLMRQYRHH
T2 sequence (P31749 whole entry): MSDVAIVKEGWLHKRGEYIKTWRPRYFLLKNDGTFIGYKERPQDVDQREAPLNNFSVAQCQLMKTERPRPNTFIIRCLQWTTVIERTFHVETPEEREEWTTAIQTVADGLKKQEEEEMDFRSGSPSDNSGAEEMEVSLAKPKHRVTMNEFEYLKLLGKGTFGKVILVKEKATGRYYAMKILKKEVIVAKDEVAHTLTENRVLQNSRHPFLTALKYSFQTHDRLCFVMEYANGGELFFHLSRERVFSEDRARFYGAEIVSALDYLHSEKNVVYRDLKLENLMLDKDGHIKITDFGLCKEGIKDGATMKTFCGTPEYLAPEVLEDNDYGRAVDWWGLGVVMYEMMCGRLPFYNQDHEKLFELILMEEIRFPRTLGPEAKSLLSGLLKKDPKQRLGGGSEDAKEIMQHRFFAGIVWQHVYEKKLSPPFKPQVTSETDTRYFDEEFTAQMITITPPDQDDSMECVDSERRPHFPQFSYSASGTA

## COc1ccnc2[nH]cc(-c3cc(N)nc(N)c3)c12 [meriolin 16]
MKK7; 0.03 µM
  residual kinase activity: 96 % of control
MKK7; 0.3 µM
  residual kinase activity: 88 % of control
AKT1; 0.03 µM
  residual kinase activity: 96 % of control
AKT1; 0.3 µM
  residual kinase activity: 70 % of control
JAK3; 0.03 µM
  residual kinase activity: 58 % of control
JAK3; 0.3 µM
  residual kinase activity: 15 % of control
TYRO3; 0.03 µM
  residual kinase activity: 104 % of control
TYRO3; 0.3 µM
  residual kinase activity: 89 % of control
PKN3; 0.03 µM
  residual kinase activity: 83 % of control
PKN3; 0.3 µM
  residual kinase activity: 74 % of control
PAK7; 0.03 µM
  residual kinase activity: 89 % of control
PAK7; 0.3 µM
  residual kinase activity: 81 % of control

## c1ccc(CNc2cc(-c3c[nH]c4ncccc34)ccn2)cc1 [meriolin 36]
MKK7; 0.3 µM
  residual kinase activity: 81 % of control
MKK7; 3 µM
  residual kinase activity: 48 % of control
AKT1; 0.3 µM
  residual kinase activity: 89 % of control
AKT1; 3 µM
  residual kinase activity: 41 % of control
JAK3; 0.3 µM
  residual kinase activity: 5 % of control
JAK3; 3 µM
  residual kinase activity: -1 % of control
TYRO3; 0.3 µM
  residual kinase activity: 94 % of control
TYRO3; 3 µM
  residual kinase activity: 64 % of control
PKN3; 0.3 µM
  residual kinase activity: 27 % of control
PKN3; 3 µM
  residual kinase activity: 3 % of control
PAK7; 0.3 µM
  residual kinase activity: 42 % of control
PAK7; 3 µM
  residual kinase activity: 9 % of control
